Values of other authors in patent publication US6515132B2, “Process for the preparation of rosiglitazone maleate” (priority 2000, dated 2003).

Conditions: dose given in diet; comparative activity data for thiazolidinediones being clinically progressed

SMILES: O=C1NC(=O)C(Cc2ccc3c(c2)CC[C@H](Cc2ccccc2)O3)S1 (stereo partly drawn) [Englitazone]
- Minimum effective dose: 200 μmol/kg diet

SMILES: CN(CCOc1ccc(CC2SC(=O)NC2=O)cc1)c1ccccn1.O=C(O)/C=C\C(=O)O (stereo not drawn) [Rosiglitazone maleate, 5-[4-[2-(N-methyl-N-(2-pyridyl)amino)ethoxy]benzyl]thiazolidine-2,4-dione maleate]
- Minimum effective dose: 3 μmol/kg diet

SMILES: CN(CCOc1ccc(CC2SC(=O)NC2=O)cc1)c1ccccn1 (stereo not drawn) [Rosiglitazone, 5-[4-[2-(N-methyl-N-(2-pyridyl)amino)ethoxy]benzyl]thiazolidine-2,4-dione]
- Minimum effective dose: 3 μmol/kg diet
